Columns and labels:
U2OS cells = assay: Ca2+ mobilization after microinjection into U2OS cells expressing GCaMP6M; assay type: cell-based, human; conditions: GCaMP6M fluorescence
35 kDa protein = assay type: binding, human; conditions: U2OS cell extracts; for IC50: read-out: IC50 for displacement of photolabeling of the 35 kDa band, [32P]-5N3-8-ethynyl-NAADP (0.23 nM) photoprobe, densitometry
23 kDa protein = assay type: binding, human; conditions: U2OS cell extracts; for IC50: read-out: IC50 for displacement of photolabeling of the 23 kDa protein, [32P]-5N3-8-ethynyl-NAADP (0.23 nM) photoprobe, densitometry
NAADP receptor [1] = assay: Ca2+ release assay in sea urchin egg homogenate; assay type: biochemical, Strongylocentrotus purpuratus; conditions: read-out: Ca2+ mobilizing EC50, fluo-3, n = 3, ± STDEV
NAADP receptor [2] = assay: Self-desensitization to subsequent 1 μM NAADP in sea urchin egg homogenate; assay type: biochemical, Strongylocentrotus purpuratus; conditions: read-out: IC50 for desensitization to NAADP-evoked Ca2+ release, subsequent addition of 1 μM NAADP, n = 3, ± STDEV

Row | SMILES | peak F/F0 (Ca2+ response) (U2OS cells; 100 nM in pipette, n = 3 injections) | lower affinity of the 35 kDa band in contrast to the 23 kDa band (35 kDa protein; ratio of IC50 values 35 kDa/23 kDa) | IC50 (35 kDa protein) | displacement of 23 kDa photolabeling, more penetrant compared to NADP (23 kDa protein; ratio of IC50 values NADP/NAADP) | IC50 (23 kDa protein) | peak F/F0 (Ca2+ response) (U2OS cells; 1 μM in pipette, n = 3) | peak F/F0 (Ca2+ response) (U2OS cells; 10 μM in pipette, n = 3) | EC50 (NAADP receptor [1]) | IC50 (NAADP receptor [2])
1 | Nc1ncnc2c1ncn2[C@@H]1O[C@H](COP(=O)(O)OP(=O)(O)OCC2OC([n+]3cccc(C(=O)[O-])c3)C(O)C2O)[C@@H](O)[C@H]1OP(=O)(O)O (stereo in doubt) [NAADP, nicotinic acid adenine dinucleotide 2′-phosphate] | 4.01 ± 1.2 | ~ 8 fold | 213 ± 19 nM | ~ 9 fold | 27 ± 1.3 nM | – | – | – | –
2 | C#Cc1nc2c(N)ncnc2n1C1OC(COP(=O)(O)OP(=O)(O)OC[C@H]2O[C@@H]([n+]3cc(N=[N+]=[N-])cc(C(=O)[O-])c3)[C@H](O)[C@@H]2O)C(O)C1OP(=O)(O)O (some centres unmarked) [5N3-8-ethynyl-NAADP, 5-Azido-8-ethynyl-NAADP] | – | – | – | – | – | 2.14 ± 0.37 | 2.8 ± 0.33 | 2860 ± 400 nM | 99 ± 7.7 nM
3 | NC(=O)c1ccc[n+]([C@@H]2O[C@H](COP(=O)([O-])OP(=O)(O)OC[C@H]3O[C@@H](n4cnc5c(N)ncnc54)[C@H](OP(=O)(O)O)[C@@H]3O)[C@@H](O)[C@H]2O)c1 [NADP, nicotinamide adenine dinucleotide 2′-phosphate] | – | – | 940 ± 204 nM | – | 246 ± 13 nM | – | – | – | –
